Data on one molecule can be found in patent publication US20220016101A1 (ACADIA Pharmaceuticals Inc., priority 2018, published 2022).

Where only a bound is given, the exact number is not on record here.

For orientation: Ki means the dissociation constant of the complex between target and ligand, obtained from inhibition or displacement. A low value points to tighter binding.

The target of assay [1] is norepinephrine transporter (Homo sapiens, UniProt P23975). In words: Receptor profile: affinity (Ki) at NET. To be noted: data on file. It counts as binding.
Chain of norepinephrine transporter (P23975 whole entry, species assumed): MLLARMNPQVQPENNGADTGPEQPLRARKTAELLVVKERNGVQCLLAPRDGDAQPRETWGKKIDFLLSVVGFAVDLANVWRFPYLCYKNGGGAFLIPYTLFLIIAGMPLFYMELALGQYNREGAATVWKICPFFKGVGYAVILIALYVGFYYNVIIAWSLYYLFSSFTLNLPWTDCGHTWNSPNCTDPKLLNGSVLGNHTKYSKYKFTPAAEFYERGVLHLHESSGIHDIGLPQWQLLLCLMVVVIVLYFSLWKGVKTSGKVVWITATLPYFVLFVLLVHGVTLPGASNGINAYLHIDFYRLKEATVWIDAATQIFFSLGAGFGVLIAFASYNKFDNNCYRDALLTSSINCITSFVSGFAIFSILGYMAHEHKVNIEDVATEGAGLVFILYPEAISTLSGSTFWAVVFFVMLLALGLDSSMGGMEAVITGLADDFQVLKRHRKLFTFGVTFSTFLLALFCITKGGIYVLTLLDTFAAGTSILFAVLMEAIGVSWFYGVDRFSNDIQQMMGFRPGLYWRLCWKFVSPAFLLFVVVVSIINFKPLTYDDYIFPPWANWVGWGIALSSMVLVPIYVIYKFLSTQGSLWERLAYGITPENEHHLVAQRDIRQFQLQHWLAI
The target of assay [2] is serotonin transporter (Homo sapiens, UniProt P31645). As to the kind of experiment: Receptor profile: affinity (Ki) at SERT. It counts as binding. To be noted: data on file.
Chain of serotonin transporter (P31645 whole entry): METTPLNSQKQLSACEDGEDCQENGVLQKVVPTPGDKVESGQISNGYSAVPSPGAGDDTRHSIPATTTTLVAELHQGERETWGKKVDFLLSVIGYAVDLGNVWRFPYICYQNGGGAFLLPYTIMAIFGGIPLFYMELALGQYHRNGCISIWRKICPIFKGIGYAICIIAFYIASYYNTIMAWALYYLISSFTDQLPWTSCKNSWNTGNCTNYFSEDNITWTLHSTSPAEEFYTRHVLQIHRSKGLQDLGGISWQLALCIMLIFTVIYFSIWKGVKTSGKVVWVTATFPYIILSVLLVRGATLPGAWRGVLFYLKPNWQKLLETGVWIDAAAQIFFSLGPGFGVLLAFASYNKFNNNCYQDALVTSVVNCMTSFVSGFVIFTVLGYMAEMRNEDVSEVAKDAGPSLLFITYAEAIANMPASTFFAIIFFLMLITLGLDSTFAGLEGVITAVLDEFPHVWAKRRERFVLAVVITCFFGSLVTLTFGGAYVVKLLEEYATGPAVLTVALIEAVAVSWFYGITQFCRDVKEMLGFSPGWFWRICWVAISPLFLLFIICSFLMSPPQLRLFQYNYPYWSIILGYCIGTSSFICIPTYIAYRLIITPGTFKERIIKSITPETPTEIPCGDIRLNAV
Assay [3] relates to adults with Parkinson's disease and depression. In words: CGI-I, open-label study in Parkinson's disease and depression. It counts as in vivo, human. The following applies: interim, first 31 patients. From the text: “Clinical Global Impression (CGI)” scale is a clinician-rated, 7-point scale that is designed to rate the severity of the subject's depression at the time of assessment using the Investigator's judgment and past experience with subjects who have the same disorder (i.e., depression with anxious distress). “Clinical Global Impression-Improvement (CGI-I)” is a clinician-rated, 7-point scale that is designed to rate the improvement in the subject's depression at the time of assessment, relative to the symptoms at Baseline. “Clinical Global Impression—Severity (CGI-S)” is an assessment of the current severity of the patient's disease.
Subjects can receive treatment as either monotherapy or adjunctively if inadequately controlled with SSRI/SNRI monotherapy. […] Secondary endpoints include Clinical Global Impression (CGI) scales (improvement and severity), Scale of Outcomes in PD-Sleep (SCOPA), and quality of life as measured by EuroQol-5 dimensions-5 levels (EQ-5D-5L).
At approximately 2, 4, and 6 weeks after start of dosing of study drug subjects returned to the clinic for assessments. Safety measures, HAMD-17, C-SSRS (Columbia Suicide Severity Rating Scale), CGI-S(Clinical Global Impression-Severity), and CGI-I (Clinical Global Impression-Improvement) were evaluated at all visits. […]

Assay [4] has as its system patients with MDD and an inadequate response to an SSRI or SNRI. In words: Karolinska Sleepiness Scale (KSS), MDD study. Type of assay: in vivo, human. The following applies: Week 5 of Stage 1. How it is done: “Karolinska Sleepiness Scale (KSS)” is a scale for evaluating subjective sleepiness (Kaida et al. Clinical Neurophysiology 2006, 117, 7, 1574-1581).
Clinic visits occurred weekly from Weeks 1 through 10. The MADRS was administered at screening and baseline. The HAMD-17, SDS, CGI, and KSS were administered at baseline and weekly during the study. Other endpoints such as the SF-12 were administered at baseline and Weeks 5 and 10. Treatment response was defined as a reduction of 50% from baseline for the HAMD-17 total score, and remission was defined as a HAMD-17 total score

For assay [5] the test system is unchanged. In words: HAMD-17 melancholic symptom subscale score (HAMD-6), MDD study. It counts as in vivo, human. The following applies: for HAMD-17 Melancholic Symptom Subscale Score Change from Baseline to Week 5 Mean (SE) / HAMD-17 Melancholic Symptom Subscale Score Change from Baseline to Week 5 Median: 34 mg QD + SSRI/SNRI. From the text: “Hamilton Depression Scale 6-item (HAMD-6)” is a subscale derived from the 17-item Hamilton Rating Scale for Depression (HAMD-17). HAMD-6 includes the following items: depressed mood, guilt feelings, work and interests, psychomotor retardation, psychic anxiety, and general somatic symptoms (Bech et al. Acta Psychiatr Scand. 1975, 51(3):161-70).
All patients continued on their SSRI or SNRI at a stable dose for the duration of the study.
A higher HAMD-17 melancholic symptom subscale score indicates more severe depression […]. The abbreviations are: CI=confidence interval; LSM=least squares mean; MMRM=mixed-effects model for repeated measures; OC=observed cases; SD=standard deviation; SE=standard error. In Stage 1, Baseline=Study Week 0, Weeks 1-5=Study Weeks 1-5; and in Stage 2, Baseline=Study Week 5, Weeks 1-5=Study Weeks 6-10. LSM is from the stage-specific MMRM analysis with the change from baseline as the outcome; treatment group, visit, treatment-by-visit interaction, baseline melancholic symptom subscale score, and baseline melancholic symptom subscale score-by-visit interaction as the factors. An unstructured covariance matrix is used to model the within-subject errors. The denominator degrees of freedom are estimated using the Kenward-Roger approximation. 2-Sided p-value is for treatment difference from the stage-specific MMRM analysis.

`CC(C)COc1ccc(CNC(=O)N(Cc2ccc(F)cc2)C2CCN(C)CC2)cc1` [pimavanserin, N-(4-Fluorophenylmethyl)-N-(1-methylpiperidin-4-yl)-N′-(4-(2-methylpropyloxy)phenylmethyl)carbamide]: the inhibition constant Ki in assay [1] was above 1000 nM. Further, the inhibition constant (Ki) in assay [2] was above 1000 nM. The “patients with a CGI-I score of 1 or 2 (very much improved or much improved)” value in assay [3] is listed as 54.8%. The same molecule showed a KSS effect size in assay [4] of 0.627. For the same molecule, the “KSS LSmean difference from baseline for pimavanserin vs. placebo” value in assay [4] (daytime sleepiness) was −1.1 (0.30). Moreover, in assay [5] (Stage 1), the “HAMD-17 Melancholic Symptom Subscale Score Effect Size (Cohen's d)” value was determined as 0.558, the “HAMD-17 Melancholic Symptom Subscale Score Change from Baseline to Week 5 Mean (SE)” value is −6.8 (0.62) and the “HAMD-17 Melancholic Symptom Subscale Score Change from Baseline to Week 5 Median” value is −8.0. Besides, in assay [5] (Stage 2), the “HAMD-17 Melancholic Symptom Subscale Score Effect Size (Cohen's d)” value is recorded as −0.304, the “HAMD-17 Melancholic Symptom Subscale Score Change from Baseline to Week 5 Mean (SE)” value is listed as −1.0 (0.46) and the “HAMD-17 Melancholic Symptom Subscale Score Change from Baseline to Week 5 Median” value is on record as −1.0.
